The values below come from patent publication US4772615A, “Various N-substituted 3-piperidine carboxylic acids or N-substituted 3-pyridinecarboxylic acids and derivatives thereof” (Warner-Lambert Company, priority 1987, dated 1988).

Structures are written as SMILES. Counter-ions that a name gives are not always drawn. Like-named read-outs stand apart in the source and are kept apart here.

Assay [1] relates to uptake of the neurotransmitter gamma-amino-butyric acid (GABA) into slices of rat hippocampal (brain) tissue. The experiment in a line: Uptake of 3H-GABA into slices (prisms) of rat hippocampus in vitro. In kind it is biochemical, Male Long Evans rats. The settings on record: 3H-GABA 0.05 μM; 10 mg tissue, 15 min with test compound at 37° C., 2 min uptake; read-out: IC50 (Calculated Median (50%) Inhibitory Concentration). How it is done:
The compounds of formula I are tested for pharmacological activity using three procedures. The first is an assay for the uptake of the neurotransmitter gamma-amino-butyric acid (GABA) into slices of rat hippocampal (brain) tissue incubated in vitro analogous to those described by Johnston, GAR, et al, in J. Neurochem. 26:1029-1032 (1976) entitled "Inhibition of the Uptake of GABA and Related Amino Acids in Rat Brain Slices by the Optical Isomers of Nipecotic Acid." Methods for this test are described in the following paragraph.
Male Long Evans rats (200-300 g) were sacrificed by decapitation, the brains quickly removed and the hippocampi were dissected out. Slices were cut (0.1×0.1 mm) on a McIlwain tissue chopper and dispersed in ice-chilled Krebs Ringer HEPES-buffered medium. Normal medium was composed of: NaCl (119 mM), KCl (4.75 mM), CaCl2 (1.25 mM), KH2 PO4 (1.20 mM), MgSO4 (1.18 mM), HEPES (22 mM), EDTA (0.03 mM), ascorbate (0.6 mM), and glucose (10 mM). The pH was adjusted to 7.2 with 3.0M Tris HCl. Following two washes in normal medium, 10 mg of tissue was incubated in a 3 ml volume of medium at 37° C. for 15 min in the presence or absence of test compound. ^3 H-GABA (80.8 Ci/mmole; 0.05 μM final concentration) was added to each flask and the uptake was allowed to proceed for a two min period. At the end of the uptake period, samples were rapidly filtered through Whatman GF/F filters and washed once with 5 ml ice-chilled 0.9% sodium chloride. The filters with tissue were placed into scintillation vials with 2 ml H2 O and allowed to sit for at least 60 min before scintillation fluid was added and samples counted. Blanks were treated in a manner similar to other samples, but were left on ice throughout the experiment. Results are expressed as percent control (no drug present) or IC50 value.
Table I. GABA uptake into prisms of rat hippocampus in vitro in the presence of different concentrations of various synthetic compounds of formula I.

Assay [2] deals with tonic hindlimb extensor seizures. The experiment in a line: Threshold Maximal Electroshock (animal model for generalized seizures). In kind it is in vivo, Male CF-1 mice. Conditions: Mus musculus, ip, 0.5 h.
Method: Male CF-1 mice (22-30 grams) are allowed free access to food and water prior to testing. For screening, groups of five mice are given a compound intraperitoneally at doses of 30, 100, and 300 mg/kg and tested at 0.5, 2.0, and 4.0 hr after dosing. Drugs are either dissolved in 0.9% saline or suspended in 0.2% methylcellulose. Animals are shocked with corneal electrodes (see below) and observed for tonic hindlimb extensor seizures. Absence of hindlimb extension is taken as an anticonvulsant effect.
The electroshock apparatus delivers a 60 Hz sine wave with a current amplitude of 14 mA (peak-to-peak) for 0.2 seconds. The current strength of 14 mA used in this procedure produces tonic extensor seizures in approximately 95% of untreated mice, but is only slightly above threshold for tonic extension.
Assay [3] has as its system threshold clonic seizures in mice caused by subcutaneous administration of pentylenetetrazol. Nature of the assay: Attenuation of threshold clonic seizures in mice caused by subcutaneous pentylenetetrazol (model for absence type seizures). In kind it is in vivo. Conditions: Mus musculus, pentylenetetrazol 85 mg/kg s.c., read-out: Calculated Median Effective Dose (ED50). How it is done:
A third pharmacological test was performed as described in R. L. Krall et al, Epilepsia, 19:409 (1978), which is incorporated herein by reference. In this procedure, drugs were tested for attenuation of threshold clonic seizures in mice caused by subcutaneous administration of pentylenetetrazol (85 mg/kg) which is a generally accepted model for absence type seizures. Results from the third test for the compound when administered either intraperitoneally (IP) or orally (PO) are shown below in Table III.

Setting [4] is: read-out: Number of Animals Protected from Seizures (n/5).
[5] abbreviates: 30 mg/kg, intraperitoneal, 30 minutes after administration, read-out: Number of Animals Protected from Seizures (n/5).
Where [6] appears, read: 2 h, PO, tested 120 min following dosing.

In the case of `CCOC(=O)C1CCCN(CCSC(c2ccccc2)c2ccccc2)C1` (centres unmarked) [IV, 3-Piperidinecarboxylic acid, 1-[2-[(diphenylmethyl)thio]ethyl]-, ethyl ester], the IC50 in assay [1] was roughly 60000 nM.
Consider `O=C(O)C1CCCN(CCOC(c2ccc(F)cc2)c2ccc(F)cc2)C1` (centres unmarked) [XIII, 3-Piperidinecarboxylic acid, 1-[2-[bis (4-fluorophenyl)methoxy]ethyl]-, monohydrochloride], for which, in assay [2] (setting [4]), the responders at 30 mg/kg was 40% and the responders at 100 mg/kg is 40%.
With `O=C(O)C1CCCN(CCOC(c2ccc(C(F)(F)F)cc2)c2ccc(C(F)(F)F)cc2)C1` (centres unmarked) [XVIII, 3-Piperidinecarboxylic acid, 1-[2-[bis[4-(trifluoromethyl)phenyl]methoxy]ethyl]-, hydrochloride], the IC50 in assay [1] is 700 nM. In addition, in assay [2] (setting [4]), the responders at 30 mg/kg is 100% and the responders at 100 mg/kg is 100%.
By ED50 is commonly meant the midpoint of the dose-response relation. With `Cl.O=C(O)C1CCCN(CCOC(c2ccccc2)c2ccccc2)C1` (centres unmarked) [VII, 3-Piperidinecarboxylic acid, 1-[2-(diphenylmethoxy)ethyl]-, monohydrochloride], the IC50 in assay [1] is 3000 nM. In assay [2] (setting [4]), the responders at 30 mg/kg was 25% and the responders at 100 mg/kg was 50%. For the same compound, the ED50 in assay [3] (0.5 h, IP, tested 30 min following dosing) was 1.9 mg/kg.
As to `CCOC(=O)C1CCCN(CCCOC(c2ccccc2)c2ccccc2)C1` (centres unmarked) [III, 3-Piperidinecarboxylic acid, 1-[3-(diphenylmethoxy)propyl]-, ethyl ester, monohydrochloride], the responders at 30 mg/kg in assay [2] (setting [5]) amounted to 0%.
In the case of `O=C(O)C1CCCN(CCCOC(c2ccccc2)c2ccccc2)C1` (centres unmarked) [VI, 3-Piperidinecarboxylic acid, 1-[3-diphenylmethoxy)propyl]-, monohydrochloride], the IC50 in assay [1] was 11000 nM. For the same compound, in assay [2] (setting [5]), the responders at 30 mg/kg is 0%. The responders at 100 mg/kg in assay [2] (100 mg/kg, intraperitoneal, 30 minutes after administration, read-out: Number of Animals Protected from Seizures (n/5) (converted)) is 20%.
As for `O=C(O)C1CCCN(CCOC(c2ccccc2)c2ccc(Cl)c(Cl)c2)C1` (centres unmarked) [Example IX, 3-Piperidinecarboxylic acid, 1-[2-[(3,4-dichlorophenyl)phenylmethoxy]ethyl]-, monohydrochloride], in assay [2] (setting [4]), the responders at 30 mg/kg was 60% and the responders at 100 mg/kg is 80%.
`CCOC(=O)C1CCCN(CCOC(c2ccccc2)c2ccccc2)C1` (centres unmarked) [II, 3-Piperidinecarboxylic acid, 1-[2-(diphenylmethoxy)ethyl]-, ethyl ester]: the IC50 in assay [1] was roughly 35000 nM. In assay [2] (setting [4]), the responders at 30 mg/kg is 20% and the responders at 100 mg/kg was 80%.
Taken in the same sequence, the figures for `CCOC(=O)C1CCCN(CCOC(c2ccc(Cl)cc2)c2ccc(Cl)cc2)C1` (centres unmarked) [Example I, 3-Piperidinecarboxylic acid 1-[2-[bis-(4-chlorophenyl)methoxy]ethyl]-, ethyl ester] were 12000 nM, 0% and 60%.
For `Cl.O=C(O)C1=CCCN(CCOC(c2ccc(C(F)(F)F)cc2)c2ccc(C(F)(F)F)cc2)C1` [XVII, 3-Pyridinecarboxylic acid, 1-[2-[bis[4-(trifluoromethyl)phenyl]methoxy]ethyl]-1,2,5,6-tetrahydro-, monohydrochloride], the IC50 in assay [1] was 450 nM. In assay [2] (setting [4]), the responders at 30 mg/kg is 80% and the responders at 100 mg/kg is 80%. In addition, the median effective dose (ED50) in assay [3] (setting [6]) was 0.5 mg/kg.
On to `O=C(O)C1CCCN(CCOC2c3ccccc3C=Cc3ccccc32)C1` (centres unmarked) [XI, 3-Piperidinecarboxylic acid, 1-[2-[(5H-dibenzo[a,d]cyclohepten-5-yloxy)ethyl]]-], for which, in assay [2] (setting [4]), the responders at 30 mg/kg is 20% and the responders at 100 mg/kg was 40%.
Consider `O=C(O)C1=CCCN(CCOC(c2ccc(Cl)cc2)c2ccc(Cl)cc2)C1` [XIX, 3-Pyridinecarboxylic acid, 1-[2-[bis(4-chlorophenyl)methoxy]ethyl]-1,2,5,6-tetrahydro, hydrochloride], for which the IC50 in assay [1] is 100 nM. Moreover, in assay [2] (setting [4]), the responders at 30 mg/kg is 80% and the responders at 100 mg/kg is 100%.
Taken in the same sequence, the figures for `O=C(O)C1CCCN(CCOC(c2ccccc2)c2ccc(Cl)c(C(F)(F)F)c2)C1` (centres unmarked) [X, 3-Piperidinecarboxylic acid, 1-[2-[[4-chloro-3-(trifluoromethyl)phenyl]phenylmethoxy]ethyl]monohydrochloride] were 860 nM, 20% and 100%.
As to `O=C(O)C1CCCN(CCOC(c2ccc(Cl)cc2)c2ccc(Cl)cc2)C1` (centres unmarked) [VIII, 3-piperidinecarboxylic acid, 1-[2-[bis(4-chlorophenyl)methoxy]ethyl]monohydrochloride], the IC50 in assay [1] was 290 nM. In assay [2] (setting [4]), the responders at 30 mg/kg is 80% and the responders at 100 mg/kg was 80%. Also, in assay [3] (setting [6]), the 50% effective dose (ED50) is 0.54 mg/kg.
